Here are results for one compound from patent US20100160440A1, “INTRANASAL PHARMACEUTICAL COMPOSITIONS COMPRISING SUCCINIC ACID AND METHODS THEREOF” (priority 2007, published 2010).

The subject of the experiment is male Wistar rats injected with beta-amyloid peptide 25-35 into NBM. The note with it: for Improvement in learning and memory as compared to control rats: 1 mg/kg for 7 days; for Latency (retention latency to enter dark compartment, mean±SD): 1 mg/kg succinic acid water solution once a day for 7 days from day 16 after beta-amyloid, retention trial 24 h after acquisition, cut-off 180 s, n=8. How it is done:
Beta-amyloid was administered bilaterally into NBM of male Wistar rats in dose of 2 μg per each side. On day 16th after the amyloid injection, rats received intranasally or intraperitoneally compositions comprising a water solution of 1 mg/kg of succinic acid for 7 days singly a day. Control rats received saline intranasally. On day next to the last day of the treatment, passive avoidance performance in rats was tested for two consecutive days. A two-compartment, step-through, passive avoidance apparatus consisting of illuminated (25×40×25 cm) and dark (25×40×25 cm) compartments attached to an electrified grid floor and separated by a guillotine door (8×8 cm) was used. In the acquisition trial, the rat was placed in the illuminated compartment in a position its tail directed to the closed door for 2 min to habituate to the apparatus. The guillotine door was opened and time to enter to dark compartment was recorded. When the rat entered to dark compartment completely (four foots in dark compartment), the guillotine door was closed and the rat was delivered an electrical shock of 0.8 mA for 3 sec through the grid floor. After the shock, the rat was immediately placed in home cage. In the retention trial, conducted 24 h after the acquisition trial, the rat was placed in the illuminated compartment and the retention latency to enter into the dark compartment was recorded until 180 s had elapsed. […] Data are presented as retention latency mean±SD (n=8).

Where two headings read alike, the source gives them in different places.

As for `O=C(O)CCC(=O)O` [Succinic acid], the “Improvement in learning and memory as compared to control rats” value reads like this: (intranasally treated rats) “significant improvement in learning and memory”; (intraperitoneally treated rats) “do not”. The “Latency (retention latency to enter dark compartment, mean±SD)” value (intranasally) is given as 87 ± 21 s and the “Latency (retention latency to enter dark compartment, mean±SD)” value (intraperitoneally) is 43 ± 19 s.
